How the values were obtained:
[1] = tested on: human influenza (influenza A/victoria H3N2) and highly pathogenic avian influenza (H7N2); format: cell-based, influenza virus
[2] = tested on: human respiratory syncytial virus (rgRSV30); format: cell-based
[3] = safety monitoring of human subjects undergoing intermittent gNO inhalation; format: in vivo
Excerpt: In some embodiments, the methods disclosed herein are effected while monitoring various parameters relevant for maintaining the desired dosage and regimen, relevant to the safety of the procedure and relevant for efficacy of the treatment. Exemplary such parameters are those obtainable on-site in real-time, such as methemoglobin level, end-tidal CO2 level, and oxygenation, and parameters which are obtainable off-site in the laboratory, such as blood nitrite level, urine nitrite level, and inflammatory markers' level. […] Embodiments of the present invention therefore relate to methods of administering gaseous nitric oxide to human subjects in need thereof, while these parameters remain substantially unchanged.
As methemoglobin levels can be measured using noninvasive measures, the parameter of percent saturation at the periphery of methemoglobin (SpMet) is used to monitor the stability, safety and effectiveness of the method presented herein.

[4] = human subjects undergoing the disclosed regimen

With `[N]=O` [gNO, nitric oxide] as the compound, how does the infectivity of influenza [1] read?
Its infectivity of influenza is “reduced their infectivity”.

And the “infectivity of RSV” value [2]?
Its value is “reduced their infectivity”.

What about the “change in inflammatory markers” value [3, 4] of the same compound?
The value was “no substantial change”.

What about the “change in methemoglobin level” value [3, 4] of the same compound?
Its value is “no substantial change”.

What about the “change in serum nitrite level” value [3, 4] of the same compound?
Its value is “no substantial change”.

What about the “SpMet level (percent saturation at the periphery of methemoglobin)” value ([3]; human subjects undergoing the method, during and following administration) of the same compound?
The value was at most 1%.
